Experiment: gradient 5% acetonitrile 3 min, to 50% in 2 min, to 85% in 15 min, held 3 min, 100 µL/min
Conditions: column: Zorbax Extend-C18 2.1 x 50 mm; eluents: water / acetonitrile, 0.1% formic acid
Method in brief: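 In both positive and negative ionization mode, a quadrupole time-of-flight mass spectrometer coupled to HPLC analyzed pure standards run in mixtures of ~100 molecules. The Zorbax Extend-C18 column (2.1 × 50 mm, 1.8 μm) was operated at 100 μL/min with water and acetonitrile, each containing 0.1% formic acid. The dead volume was 40 μL and the dwell volume 900 μL. Retention time came from adduct peaks that were computationally picked and individually inspected by hand.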

## Cn1cc(C2=CCN(C(=O)Nc3ccc(F)cc3F)CC2)c2cccnc21
  RP-LC retention time: 792 s

## CCN(CC)S(=O)(=O)c1cccc(-c2cn3cc(C)ccc3n2)c1
  RP-LC retention time: 598 s

## Cc1cc2nn(CC(=O)N(C)c3ccccc3)c(=O)n2c(Nc2ccc(C)c(C)c2)n1
  RP-LC retention time: 1100 s

## CCC(C)C(NC(=O)c1cccc(Cl)c1)C(=O)Nc1nc2ccccc2[nH]1 (stereo not given)
  RP-LC retention time: 750 s

## COc1ccc(CN2C(=O)CC(c3ccc(OC)cc3)CC2=O)cc1
  RP-LC retention time: 965 s

## CS(=O)(=O)N1CCC(OC2CCN(C(=O)c3ccccc3)CC2)CC1
  RP-LC retention time: 709 s

## CCc1nc(OCC(=O)Nc2ccccc2CC)c2ccccc2n1
  RP-LC retention time: 830 s

## CCn1ccc(C(=O)N2[C@H]3CC[C@@H]2c2cnc(C)nc2C3)n1
  RP-LC retention time: 610 s

## CCOc1ccc(C(=O)N2C[C@@H]3C[C@H]2C[C@@H]3NC(=O)c2ccccc2)cc1
  RP-LC retention time: 757 s

## COc1ccc(-c2csc(NCCc3ccc(OC)c(OC)c3)n2)cc1
  RP-LC retention time: 792 s

## Cc1ccccc1Nc1c(-c2ccccc2F)nc2ccccn12
  RP-LC retention time: 707 s

## CCC(C(=O)NCCCN1CCN(CC)CC1)n1c2ccccc2c2cnn(C)c(=O)c21 (stereo not given)
  RP-LC retention time: 594 s

## NC(=NCc1ccc(Cl)cc1Cl)NC(=O)c1nc(Cl)c(N)nc1N
  RP-LC retention time: 770 s

## CC(C)CNC(=O)C1CCN(c2nccn3nc(-c4cccs4)cc23)CC1
  RP-LC retention time: 561 s

## Cc1ccc(-c2nnc(Cc3nc(-c4ccccc4Cl)no3)o2)cc1C
  RP-LC retention time: 1230 s

## O=C(NC1CCN(c2ccccc2)C1=O)c1ccc(Br)cc1 (stereo not given)
  RP-LC retention time: 844 s

## CCCn1c(=O)sc2cc(S(=O)(=O)N3CCC(C(=O)NCc4cccc(C)c4)CC3)ccc21
  RP-LC retention time: 975 s

## Cc1cccc(Nc2c(-c3ccc(N4CCOCC4)cc3)nc3ncccn23)c1
  RP-LC retention time: 717 s

## O=C(c1ccncc1)N1CCc2cc(-c3csc(C4CC4)n3)ccc21
  RP-LC retention time: 848 s

## COC(=O)c1nnn(-c2cccc(C)c2C)c1C(=O)OC
  RP-LC retention time: 878 s

## CC1=C(c2ccc(F)cc2)S(=O)(=O)N=C1N1CCCN(C(=O)c2ccoc2)CC1
  RP-LC retention time: 752 s

## O=C(c1ccc(Cl)cc1)N1CCN(c2cnn3c(C4CC4)nnc3c2)CC1
  RP-LC retention time: 683 s

## Cc1cc(C)n2nc(SCC(=O)NCCc3ccc(Cl)cc3)nc2n1
  RP-LC retention time: 719 s

## O=C(CCc1ccc2cc[nH]c2c1)NCc1cc(F)cc(F)c1
  RP-LC retention time: 848 s

## CCNc1cc(N2CCCC(CCC(=O)N(C)CCc3ccccn3)C2)ncn1 (stereo not given)
  RP-LC retention time: 556 s

## COc1cc([C@H]2Oc3cc([C@H]4Oc5cc(O)cc(O)c5C(=O)[C@@H]4O)ccc3O[C@@H]2CO)ccc1O
  RP-LC retention time: 685 s

## COc1ccc(Cl)cc1C(=O)Nc1ccc2c(c1)Sc1ncccc1C(=O)N2C
  RP-LC retention time: 946 s

## Cc1ccsc1C(=O)NC1CCN(c2cc(-c3ccc(F)cc3)[nH]n2)C1 (stereo not given)
  RP-LC retention time: 670 s

## COc1ccc(-c2ccnn2-c2ccc(SCc3ccccc3C)nn2)cc1
  RP-LC retention time: 1390 s

## COCCNc1ccc2nnc(C)n2n1
  RP-LC retention time: 590 s

## Cc1ccc2oc(C(=O)Nc3ccnn3Cc3ccccc3)cc(=O)c2c1
  RP-LC retention time: 835 s

## Cc1ccc(NC(=O)NCC2CCOCC2)cc1Cl
  RP-LC retention time: 773 s

## COCCOC(=O)C1=C(C)NC2=C(C(=O)CC(C)(C)C2)C1c1cccc(OC)c1OC (stereo not given)
  RP-LC retention time: 787 s

## CN1C(=O)c2cccn2CC1CNC(=O)Nc1ccccc1 (stereo not given)
  RP-LC retention time: 647 s

## COC(=O)CNC(=O)Nc1ccc2nc(-c3ccc(F)cc3)cc(OC)c2c1
  RP-LC retention time: 624 s

## CN(C(=O)CSc1cc(NCc2ccc(Cl)cc2)ncn1)C1CCCCC1
  RP-LC retention time: 956 s

## Cc1ccc(CN(C)Cc2cc(=O)n3ccccc3n2)cc1
  RP-LC retention time: 606 s

## COCCn1cc2c3c(cccc31)CN(C(=O)Nc1cccc(Cl)c1C)CC2
  RP-LC retention time: 1070 s

## Cn1nc(C(=O)N2CCCCC2)c2c1CCN(C(=O)CCC(=O)NCCCN1CCCCC1)C2
  RP-LC retention time: 579 s

## O=C(NCC1CCCO1)N1CCCn2nc(-c3cccs3)cc2C1 (stereo not given)
  RP-LC retention time: 663 s

## COc1ccc(-c2ccc(=O)n(Cc3nc(-c4ccc(OC(C)C)cc4)no3)n2)cc1
  RP-LC retention time: 1120 s

## Cc1cc2nn(CC(=O)Nc3cc(F)ccc3F)c(=O)n2c(Nc2ccc(F)c(C)c2)n1
  RP-LC retention time: 1100 s

## COc1ccc(S(=O)(=O)N2CCC(C(=O)NCc3csc(-c4ccccc4)n3)CC2)cc1
  RP-LC retention time: 885 s

## CCCNC(=O)C1CCN(c2ccc(SCC(=O)Nc3ccc(C)cc3F)nn2)CC1
  RP-LC retention time: 679 s

## CCOC(=O)N1CCN(c2ncc3c(n2)CC(C)CC3=O)CC1 (stereo not given)
  RP-LC retention time: 842 s

From the METLIN SMRT retention time set (Domingo-Almenara et al. 2019)
